In US20120004228A1, “Bis Aromatic Compounds for Use as LTC4 Synthase Inhibitors” (BIOLIPOX AB, priority 2009, published 2012):

target: T1, Recombinant human LTC4 synthase (Homo sapiens, UniProt Q16873); experiment: In vitro LTC4 synthase assay (LTA4 to LTC4, HTRF detection); format: biochemical; conditions: not given
T1 construct: made in house; host or cells: Pichia pastoris ('Piccia pastoralis' [sic])
T1 sequence (Q16873 1-150): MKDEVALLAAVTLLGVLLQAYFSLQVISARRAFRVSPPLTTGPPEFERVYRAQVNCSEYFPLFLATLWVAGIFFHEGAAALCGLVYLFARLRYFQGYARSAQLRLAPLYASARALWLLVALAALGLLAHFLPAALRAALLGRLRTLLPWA

| SMILES | IC50 |
| --- | --- |
| CCOCCN(c1ccccc1)c1cc(C(=O)O)cc(C(=O)c2ccc(N(C)c3ccc(Cl)cc3)cn2)c1 [9:47, 3-{5-[(4-Chlorophenyl)(methyl)amino]picolinoyl}-5-[(2-ethoxyethyl)(phenyl)-amino]benzoic acid] | 60 nM |
| CN(c1ccc(Cl)cc1)c1ccc(C(=O)c2cc(C(=O)O)cc(N(CC3CCCCO3)c3ccccc3)c2)cc1 (stereo not drawn) [10:36, 3-{4-[(4-Chlorophenyl)(methyl)amino]benzoyl}-5-{pheny[(tetrahydropyran-2-yl)methyl]amino}benzoic acid] | 25 nM |
| COc1ccccc1N(C(C)=O)c1cc(C(=O)O)cc(C(=O)c2ccc(N(C)c3ccc(Cl)cc3)cn2)c1 [9:24, 3-{5-[(4-Chlorophenyl)(methyl)amino]picolinoyl}-5-[N-(2-methoxyphenyl)-acetamido]benzoic acid] | 932 nM |
| CN(c1ccc(Cl)cc1)c1ccc(C(=O)c2cc(Oc3ccc(C(C)(C)C)cc3)cc(C(=O)O)c2)cc1 [8:16, 3-(4-tert-Butylphenoxy)-5-{4-[(4-chlorophenyl)(methyl)amino]benzoyl}benzoic acid] | 159 nM |
| COc1cccc(Oc2cc(C(=O)O)cc(C(=O)c3ccc(N(C)c4ccc(Cl)cc4)cc3)c2)c1 [8:14, 3-{4-[(4-Chlorophenyl)(methyl)amino]benzoyl}-5-(3-methoxyphenoxy)benzoic acid] | 143 nM |
| COc1cccc(C(=O)c2cc(C(=O)O)cc(C(=O)c3ccc(N(C)c4ccc(Cl)cc4)cn3)c2)c1 [Example 15, 3-{5-[(4-Chlorophenyl)(methyl)amino]picolinoyl}-5-(3-methoxybenzoyl)benzoic acid] | 173 nM |
| CCCCOc1ccc(S(=O)(=O)Nc2cc(C(=O)O)cc(C(=O)c3ccc(Nc4ccc(Cl)cc4)cc3)c2)cc1 [Example 7, 3-(4-Butoxybenzensulfonamido)-5-[4-(4-chlorophenylamino)benzoyl]benzoic acid] | 89 nM |
| CN(c1ccc(Cl)cc1)c1ccc(C(=O)c2cc(C(=O)O)cc(N(CCCCO)c3cccnc3)c2)nc1 [9:39, 3-{5-[(4-Chlorophenyl)(methyl)amino]picolinoyl}-5-[(4-hydroxybutyl)(3-pyridyl)-amino]benzoic acid] | 126 nM |
| O=C(O)c1cc(Nc2ccc(Cl)cc2)ccc1C(=O)c1ccc(Nc2ccc(C(=O)C3CC3)cc2)cc1 [6:2, 5-(4-Chlorophenylamino)-2-[4-(4-cyclopropylcarbonylphenylamino)-benzoyl]benzoic acid] | 390 nM |
| CN(c1ccc(Cl)cc1)c1cc(C(=O)O)cc(C(=O)c2ccc(N(CC3CC3)c3ccc(Cl)cc3)cn2)c1 [Example 9:16, 3-{5-[(4-Chlorophenyl)(cyclopropylmethyl)amino]picolinoyl}-5-[(4-chlorophenyl)-(methyl)amino]benzoic acid] | 17 nM |
| CN(c1ccc(Cl)cc1)c1ccc(C(=O)c2cc(C(=O)O)cc(N(CC3CCC3)c3ccccc3)c2)cc1 [10:30, 3-{4-[(4-Chlorophenyl)(methyl)amino]benzoyl}-5-[(cyclobutylmethyl)(phenyl)-amino]benzoic acid] | 147 nM |
| CN(c1ccc(Cl)cc1)c1ccc(C(=O)c2cc(C(=O)O)cc(C(=O)Nc3ccccc3)c2)cc1 [Example 2:11] | 694 nM |
| CN(c1ccc(Cl)cc1)c1ccc(C(=O)c2ccc(NC(=O)c3cccc(Cl)c3)cc2)c(C(=O)O)c1 [Example 4:2, 2-[4-(3-Chlorobenzamido)benzoyl]-5-[(4-chlorophenyl)(methyl)amino)-benzoic acid] | 703 nM |
| COc1ccc(CN(C)c2cc(C(=O)O)cc(C(=O)c3ccc(N(C)c4ccc(Cl)cc4)cn3)c2)cc1 [9:9, 3-{5-[(4-Chlorophenyl)(methyl)amino]picolinoyl}-5-[(4-methoxybenzyl)(methyl)-amino]benzoic acid] | 123 nM |
| CN(c1ccc(Cl)cc1)c1ccc(C(=O)c2cc(C(=O)O)cc(N(C)C3CCOCC3)c2)cc1 [10:22, 3-{4-[(4-Chlorophenyl)(methyl)amino]benzoyl}-5-[methyl(4-tetrahydropyranyl)-amino]benzoic acid] | 252 nM |
| CN(c1ccc(Cl)cc1)c1ccc(C(=O)c2cc(C(=O)O)cc(N(CCCCO)c3ccc4c(c3)OCCO4)c2)nc1 [9:35, 3-{5-[(4-Chlorophenyl)(methyl)amino]picolinoyl}-5-[(3,4-ethylenedioxyphenyl)-(4-hydroxybutyl)amino]benzoic acid] | 70 nM |
| CCN(CC)c1ccc(Oc2cc(C(=O)O)cc(C(=O)c3ccc(N(C)c4ccc(Cl)cc4)cc3)c2)cc1 [8:15, 3-{4-[(4-Chlorophenyl)(methyl)amino]benzoyl}-5-(4-(diethylamino)phenoxy)-benzoic acid] | 183 nM |
| CN(c1ccc(Cl)cc1)c1ccc(C(=O)c2cc(Nc3ccc4c(c3)OC(F)(F)O4)cc(C(=O)O)c2)cc1 [10:18, 3-{4-[(4-Chlorophenyl)(methyl)amino]benzoyl}-5-[3,4-(difluoromethylene-dioxy)phenylamino]benzoic acid] | 105 nM |

| SMILES | IC50 |
| --- | --- |
| CN(Cc1ccc2c(c1)OCO2)c1cc(C(=O)O)cc(C(=O)c2ccc(N(C)c3ccc(Cl)cc3)cn2)c1 [9:14, 3-{5-[(4-Chlorophenyl)(methyl)amino]picolinoyl}-5-[(3,4-methylenedioxy-benzyl)(methyl)amino]benzoic acid] | 103 nM |
| CN(c1ccc(Cl)cc1)c1ccc(C(=O)c2cc(OCc3ccccc3)cc(C(=O)O)c2)nc1 [11:2, 3-Benzyloxy-5-{5-[(4-chlorophenyl)(methyl)amino]picolinoyl}benzoic acid] | 462 nM |
| CN(c1ccc(Cl)cc1)c1ccc(C(=O)c2cc(C(=O)O)cc(N(CCCCO)c3ccccn3)c2)nc1 [9:40, 3-{5-[(4-Chlorophenyl)(methyl)amino]picolinoyl}-5-[(4-hydroxybutyl)(2-pyridyl)-amino]benzoic acid] | 362 nM |
| CN(c1ccc(Cl)cc1)c1ccc(C(=O)c2cc(C(=O)O)cc(N(C)c3ccc4c(c3)OCCO4)c2)nc1 [9:34, 3-{5-[(4-Chlorophenyl)(methyl)amino]picolinoyl}-5-[(3,4-ethylenedioxy-phenyl)(methyl)amino]benzoic acid] | 216 nM |
| CN(c1ccc(Cl)cc1)c1ccc(C(=O)c2cc(NCc3ccc(Cl)cc3)cc(C(=O)O)c2)cc1 [10:20, 3-(4-Chlorobenzylamino)-5-{4-[(4-chlorophenyl)(methyl)amino]benzoyl}-benzoic acid] | 118 nM |
| CN(c1ccc(Cl)cc1)c1ccc(C(=O)c2cc(Oc3ccc(F)c(F)c3)cc(C(=O)O)c2)nc1 [8:2, 3-{5-[(4-Chlorophenyl)(methyl)amino]picolinoyl}-5-(3,4-difluorophenoxy)-benzoic acid] | 41 nM |
| CN(c1ccc(Cl)cc1)c1ccc(C(=O)c2cc(OCc3cccc(F)c3)cc(C(=O)O)c2)nc1 [11:4, 3-{5-[(4-Chlorophenyl)(methyl)amino]picolinoyl}-5-(3-fluorobenzyloxy)benzoic acid] | 454 nM |
| CN(c1ccc(Cl)cc1)c1ccc(C(=O)c2cc(Nc3ccc(Cl)cc3)cc(C(=O)O)c2)nc1 [9:4, 3-{5-[(4-Chlorophenyl)(methyl)amino]picolinoyl}-5-(4-chlorophenylamino)-benzoic acid] | 70 nM |
| CN(c1ccc(Cl)cc1)c1ccc(C(=O)c2cc(Nc3ccc(C(F)(F)F)cc3Cl)cc(C(=O)O)c2)cc1 [10:11, 3-[2-Chloro-4-(trifluoromethyl)phenylamino]-5-{4-[(4-chlorophenyl)(methyl)-amino]benzoyl}benzoic acid] | 125 nM |
| COc1cccc(N(C)c2cc(C(=O)O)cc(C(=O)c3ccc(N(C)c4ccc(Cl)cc4)cn3)c2)c1 [9:21, 3-{5-[(4-Chlorophenyl)(methyl)amino]picolinoyl}-5-[(3-methoxyphenyl)(methyl)-amino]benzoic acid] | 274 nM |
| CN(c1ccc(Cl)cc1)c1ccc(C(=O)c2cc(NCc3ccccc3)cc(C(=O)O)c2)cc1 [10:10, 3-Benzylamino-5-{4-[(4-chlorophenyl)(methyl)amino]benzoyl}benzoic acid] | 360 nM |
| CN(c1ccc(Cl)cc1)c1ccc(C(=O)c2cc(C(=O)O)cc(N(CC3OCCO3)c3ccccc3)c2)cc1 [10:29, 3-{[(1,3-Dioxolan-2-yl)methyl](phenyl)amino}-5-{4-[(4-chlorophenyl)(methyl)-amino]benzoyl}benzoic acid] | 40 nM |
| COc1ccc(Nc2cc(C(=O)O)cc(C(=O)c3ccc(N(C)c4ccc(Cl)cc4)cn3)c2)cc1 [9:32, 3-{5-[(4-Chlorophenyl)(methyl)amino]picolinoyl}-5-(4-methoxyphenylamino)-benzoic acid] | 353 nM |
| CN(c1ccc(Cl)cc1)c1ccc(C(=O)c2cc(Cc3ccccc3)cc(C(=O)O)c2)nc1 [Example 13, 3-Benzyl-5-{5-[(4-chlorophenyl)(methyl)amino]picolinoyl}benzoic acid] | 298 nM |
| COc1ccccc1Nc1cc(C(=O)O)cc(C(=O)c2ccc(N(C)c3ccc(Cl)cc3)cc2)c1 [10:15, 3-{4-[(4-Chlorophenyl)(methyl)amino]benzoyl}-5-(2-methoxyphenylamino)-benzoic acid] | 360 nM |
| CN(c1ccc(Cl)cc1)c1ccc(C(=O)c2cc(Nc3ccccc3)cc(C(=O)O)c2)nc1 [9:11, 3-{5-[(4-Chlorophenyl)(methyl)amino]picolinoyl}-5-(phenylamino)benzoic acid] | 61 nM |
| CN(c1ccc(Cl)cc1)c1ccc(C(=O)c2cc(C(=O)O)cc(N(C)c3cccnc3)c2)nc1 [9:42, 3-{5-[(4-Chlorophenyl)(methyl)amino]picolinoyl}-5-[methyl(3-pyridyl)amino]-benzoic acid] | 1550 nM |
| CN(c1ccc(Cl)cc1)c1ccc(C(=O)c2cc(C(=O)O)cc(-n3ccc4ccccc43)c2)nc1 [Example 16, 3-{5-[(4-Chlorophenyl)(methyl)aminol]picolinoyl}-5-(1-indolyl)benzoic acid] | 259 nM |

same assay, conditions: 5 min; total concentration of title compound in the assay 10 μM

| SMILES | inhibition at 10 µM |
| --- | --- |
| CCCCOc1ccc(S(=O)(=O)Nc2cc(C(=O)O)cc(C(=O)c3ccc(Nc4ccc(Cl)cc4)cc3)c2)cc1 [Example 7, 3-(4-Butoxybenzensulfonamido)-5-[4-(4-chlorophenylamino)benzoyl]benzoic acid] | 98% |
| O=C(O)c1cc(Nc2ccc(Cl)cc2)ccc1C(=O)c1ccc(Nc2ccc(C(=O)C3CC3)cc2)cc1 [6:2, 5-(4-Chlorophenylamino)-2-[4-(4-cyclopropylcarbonylphenylamino)-benzoyl]benzoic acid] | 100% |
| CN(c1ccc(Cl)cc1)c1ccc(C(=O)c2ccc(NC(=O)c3cccc(Cl)c3)cc2)c(C(=O)O)c1 [Example 4:2, 2-[4-(3-Chlorobenzamido)benzoyl]-5-[(4-chlorophenyl)(methyl)amino)-benzoic acid] | 100% |
